Laboratory results reported in patent EP0318138A1, “Use of inorganic fluorides and nitrogen heterocyclics for enhancement of fluoride uptake in teeth” (SHISEIDO COMPANY LIMITED, priority 1987, dated 1989).

Experiments:
[1] = Experiment 2: fluorine concentration in enamel of treated tooth by enamel biopsy; design: species or system bovine
Description: (§1) A fluoride compound, and pyridoxine hydrochloride, 3-pyridylcarbinol or thiamine hydrochloride were added to distilled water, in amounts shown in table 4 to produce preparations. A bovine tooth (which had been ground to remove 200 µm of the surface and expose the enamel surface) was incubated in each preparation at 37°C for 5 minutes and in a calcifying solution at 37°C for 60 minutes, and then washed with tap water and dried. The fluorine concentration in the enamel of the fluoride-treated bovine tooth was determined by enamel biopsy. […] Considerable decalcification. x ... No inhibition of decalcification.

[2] = Experiment 2: decalcification in acidic gelatin gel observed by microradiography; design: species or system bovine; conditions: 4W in acidic gelatin gel
Description: as §1

[3] = Experiment 1: inhibition of decalcification (dissolved calcium from treated powder in acetate buffer); conditions: acetate buffer 37°C 60 minutes
Description: (§2) Sodium fluoride and the heterocyclic compounds or the fatty acid ester (for comparison) listed in Tables 1 to 3 were added to an distilled water in the amounts shown in Tables 1 to 3, and the pH of the solution was adjusted to 4.5 with dilute hydrochloride or sodium hydroxide to form several preparations. Synthetic hydroxyapatite powder was incubated in each of the preparations at 37°C for 5 minutes and in a calcifying solution at 37°C for 60 minutes, and then filtrated and dried. The fluorine concentration in the treated synthetic hydroxyapatite powder was determined by microdiffusion analysis, and the amount of dissolved calcium after incubating the treated powder in an acetate buffer at 37°C for 60 minutes was measured. The inhibition (%) of decalcification was then calculated by the following equation, to evaluate the acid resistance thereof. [drawing 3]

[4] = Experiment 1: fluorine concentration in treated synthetic hydroxyapatite powder (microdiffusion analysis); conditions: pH 4.5, 37°C 5 minutes, then calcifying solution 60 minutes
Description: as §2

With `[F-].[Na+]` [Sodium fluoride] the “F conc. in enamel” value ([1]; 1st Etch) was 498 ppm, the “F conc. in enamel” value ([1]; 2nd etch) was 309 ppm and the “F conc. in enamel” value ([1]; 3rd etch) was 222 ppm. For the same compound, the “F conc. in enamel” value ([1]; 4th etch) was 178 ppm, the “F conc. in enamel” value ([1]; 5th etch) was 139 ppm and the Inhibition of decalcification [2] was “○”. For the same compound, the “Inhibition of decalcification (%)” value ([3]; Sodium fluoride 0.2 %, pyridoxine hydrochloride 0 %, pH 4.5) was 40.9%, the “Inhibition of decalcification (%)” value ([3]; Table 2, preparations pH 4.5) was 40.9% and the “Inhibition of decalcification (%)” value ([3]; Table 3, preparations pH 4.5) was 40.9%. The “Fluorine concentration (ppm)” value ([4]; Sodium fluoride 0.2 %, pyridoxine hydrochloride 0 %) was 4910 ppm, the “Fluorine concentration (ppm)” value ([4]; Table 2, preparations in distilled water) was 4910 ppm and the “Fluorine concentration (ppm)” value ([4]; Table 3, preparations in distilled water) was 4796 ppm.
